According to US5223494A, “Orally administered porphyrins to control intestinal iron absorption” (The Rockefeller University, priority 1990, dated 1993):
Where two headings read alike, the source gives them in different places.

Columns and labels:
[1] = rat, in vivo, po
Protocol: (§1) Rats were maintained on Standard Purina Rodent Chow (St. Louis, Mo.), and were allowed to acclimatize to a light-cycled room (12 hr light/dark cycle) for at least one week prior to study. SnPP was dissolved in a small volume (0.2 ml/ml final volume) of 0.2N Na3 PO4 12H2 O, adjusted to pH 7.4 with 1M HCl and made up to a final volume with 0.9% NaCl under subdued light. SnPP was administered either subcutaneously or by gavage in a single dose of 25 umoles/kg body weight (4.0 ml/kg body weight). Control rats received an equivalent volume of diluent. All rats were allowed free access to food and water.
All tin analyses were performed on Zeeman/5000 atomic absorption spectrophotometer equipped with an HGA-500 graphite furnace Perkin-Elmer Corp., Norwalk, Conn.). The graphite furnace utilized the L'vov platform (See Slavin et al, At. Spectrosc. 2: 137-145 (1981)) with an appropriate wavelength (286.4 nm) and instrumental operating conditions as recommended by the manufacturer and optimized in our laboratory for tin measurement. All tin analyses included magnesium nitrate and ammonium phosphate in 20% nitric acid as a matrix modified.
For Table II: SnPP was adminsitered to rats in a single dose (25 umoles/kg body weight) either orally or subcutaneously. Tissue tin levels were determined 48 hours later by graphite furnace atomic absorption spectroscopy. […]

[2] = tested on: intestinal microsomal heme oxygenase; assay: Intestinal microsomal heme oxygenase activity after a single dose to rats; type: in vivo, rat; details: for Heme Oxygenase Activity in the Gut, Average: control 2.70 + 0.09
Protocol: as §1
(§2) Animals were sacrificed at the times indicated in the legend to the Table and in the above and following descriptions of the Figures, and then exhaustively perfused in situ with ice-cold 0.9% NaCl through the left ventricle. The small intestine was cut at the pyloric junction and the entire length of the intestine irrigated in situ with 30 ml of ice-cold 0.9% NaCl to remove intestinal contents. Beginning at 5 cm, a 20 cm segment of small intestine was excised and irrigated once more with 30 ml of saline. The mucosa was then gently scraped off with a stainless steel scalpel and placed in ice-cold potassium phosphate buffer (0.1M, pH 7.4), containing sucrose (0.25M), 20% glycerin (v/v), trypsin inhibitor (5 mg/ml), and heparin (3 U/ml), as described by Stohs et al, Arch. Biochem Biophys. 177: 105-116 (1976). Following sonication and homogenization, intestinal microsomes were then prepared by differential centrifugation as described in Rosenberg et al, Biochem. Pharmacol. 38: 1155-1161 (1988). The microsomal pellet was rinsed and resuspended in 1.5 ml of potassium phosphate buffer (0.1M, pH 7.4) to a protein concentration of approximately 5-10 mg/ml. Microsomes were freshly prepared on a daily basis for all subsequent assays. The activity of heme oxygenase was determined as described in Maines et al, J. Biol. Chem. 250: 4171-4178 (1975), using the 105,000xg supernatant fraction derived from normal rat liver as the source of biliverdin reductase, and a hemin concentration of 50 uM. Bilirubin formation was calculated using an absorption coefficient of 40 mm^1 cm^1 between 464 and 530 nm (See Maines et al, Proc. Natl. Acad. Sci. USA 71: 4293-4297 (1974)). Protein content was determined by method of Lowry et al, J. Biol. Chem. 193: 265-275 (1951) suing bovine serum albumin as a standard.
A single does of SnPP (25 umoles/kg b.w.) was administered either orally or parenterally to rats, and heme oxygenase levels were determined in the small intestinal epithelium at the times indicated in FIG. 1. This dose was selected to match that previously used by other investigators (See Hintz et al, Ped. Res. 23: 50-53 (1988)). Following oral treatment, heme oxygenase activity was rapidly (within 3 hours) inhibited (50% of controls), but the levels returned to normal within 16-24 hours after treatment.

[3] = tested on: intestinal microsomal heme oxygenase; assay: Competitive inhibition of intestinal microsomal heme oxygenase in vitro; type: biochemical, rat
Protocol: SnPP (o) was added to intestinal microsomes at concentrations of […]. The heme concentration was 50 uM. Heme oxygenase activity was determined as described below under Materials and Methods. Each point represents the mean of at least 3 individual experiments. Similar results obtain for other metalloporphyrins within the scope of the present invention.
as §2
This is similar to the Km reported for heme in hepatic and splenic microsomes (See Kappas et al, J. Clin. Invest. 77: 335-339 (1986); Yoshinaga et al, J. Biol. Chem. 257: 7778-7785 (1982)).

[4] = tested on: intestinal heme oxygenase; details: in vitro or in vivo after administration of SnPP; Hintz et al 1988; cited from earlier work
[5] = SnPP 25 umoles/kg single oral dose, rat

Q: For `C=Cc1c2[n-]c(c1C)/C=c1\[n-]/c(c(C)c1C=C)=C\c1[n-]c(c(CCC(=O)O)c1C)/C=c1\[n-]c(c(C)c1CCC(=O)O)=C2.[Sn+4]` [SnPP, tin protoporphyrin], which “absorption from the gastrointestinal tract” value [1] is on record?
A: very low degree of absorption

Q: And the “heme oxygenase activity in small intestinal epithelium” value [2, 5]?
A: 50 % of controls

Q: What about the “time for heme oxygenase levels to return to normal” value [2, 5] of the same compound?
A: 16 to 24 h

Q: What about the “time to inhibition of heme oxygenase activity” value [2, 5] of the same compound?
A: ≤ 3 h

Q: And the “inhibition of heme oxygenase activity” value ([2]; SnPP 25 umoles/kg single parenteral (subcutaneous) dose, rat)?
A: 65 % inhibition

Q: What about the “persistence of decreased heme oxygenase activity” value ([2]; SnPP 25 umoles/kg single parenteral dose, rat) of the same compound?
A: at least 48 hours

Q: And the Km ([3]; SnPP 0.05 uM, intestinal microsomes, read-out: Km for heme in presence of SnPP)?
A: 23.9 µM

Q: What about the Km ([3]; SnPP 0.1 uM, intestinal microsomes, read-out: Km for heme in presence of SnPP) of the same compound?
A: 56.2 µM

Q: And the “increase in the Km for heme” value ([3]; SnPP 0.05 and 0.1 uM)?
A: 3- to 7 fold

Q: And the “type of inhibition of enzyme activity” value ([3]; SnPP 0.05 and 0.1 uM added to incubation mixtures)?
A: marked competitive inhibition

Q: And the Ki ([3]; intestinal microsomes)?
A: 17 nM

Q: What about the “inhibition of intestinal heme oxygenase” value [4] of the same compound?
A: no inhibition

Q: Which Km ([3]; intestinal microsomes, no inhibitor, linear regression, read-out: apparent Km for the substrate heme) does the source give for `C=CC1=C(C)c2cc3[n-]c(cc4[n-]c(cc5nc(cc1n2)C(C)=C5C=C)c(C)c4CCC(=O)O)c(CCC(=O)O)c3C.[Fe+2]` [heme, reference compound] here?
A: 8.21 µM

Q: Which results are given for chromium mesoporphyrin [CrMP]?
A: Heme Oxygenase Activity in the Gut, Average ([2]; 3 hours after oral 25 umol/Kg CrMP): 0.64 + 0.38; Heme Oxygenase Activity in the Gut, Average ([2]; 16 hours after oral 25 umol/Kg CrMP): 1.04 + 0.02; Heme Oxygenase Activity in the Gut, Average ([2]; 24 hours after oral 25 umol/Kg CrMP): 1.85 + 0.07; Heme Oxygenase Activity in the Gut, Average ([2]; 48 hours after oral 25 umol/Kg CrMP): 2.57 + 0.07
